Data from patent publication US10500166B2, “Methods for the treatment of erectile dysfunction using fispemifene” (QUATRX PHARMACEUTICALS, priority 2007, dated 2019).

Legend:
estradiol = assay: Phase I repeated dose study 101-50202: serum estradiol; format: in vivo, human
Text: Fispemifene has been studied in two phase I studies in humans—in a single dose and a repeated dose study. Effect of fispemifene on hormone levels was one main focus of the repeated dose study. The phase I repeated dose study (number 101-50202) was a randomized, double-blind, placebo-controlled 28-day dose-escalation study performed in 31 healthy, elderly men, aged 50-68 years. The main objective of the study was to investigate the tolerability, safety and pharmacokinetics of fispemifene after repeated oral doses, but the study focused also on the effects of fispemifene on serum free and total testosterone, estradiol, and other relevant hormones. The fispemifene doses 10, 30, 100 and 300 mg per day and placebo were administered once every morning as capsules containing 10 mg or 100 mg of fispemifene, or placebo.
The variables for safety and tolerability were adverse events, vital signs, 12-lead ECG, clinical laboratory evaluations, physical examination, ultrasound examinations (mammary glands) and inhibin B. For pharmacokinetics, the concentrations of fispemifene and its metabolite(s) were to be evaluated. For pharmacodynamics, serum concentrations of FSH, LH, estradiol, testosterone, SHBG, prolactin, aldosterone, cortisol and TSH before and during treatment were measured and compared with the concentrations in the placebo-group.

total testosterone = assay: Example 3 study in hypogonadal men: morning serum total testosterone (ITT); format: in vivo, human
Method: A randomized, double-blind, placebo controlled, parallel-group study of once-daily doses of fispemifene (100, 200, and 300 mg/day) given for 4 weeks was conducted in a population of hypogonadal men. Subjects were required to meet all of the following inclusion criteria at screening and prior to randomization to be eligible for the study:
There were 77 subjects total. The number of subjects randomized to the 100 mg fispemifene, 200 mg fispemifene, 300 mg fispemifene, and placebo arms were 21, 21, 19, and 16, respectively.
Subjects were randomly assigned to one of four treatment groups in a 1:1:1:1 ratio: • Treatment A (100 mg): fispemifene 100 mg+placebo+placebo; • Treatment B (200 mg): fispemifene 100 mg+fispemifene 100 mg+placebo; • Treatment C (300 mg): fispemifene 100 mg+fispemifene 100 mg+fispemifene 100 mg; and • Treatment D (Placebo): placebo+placebo+placebo.
Subjects took one dose (three capsules) of study medication once a day at home for 4 weeks. Capsules were to be taken in the morning immediately after breakfast, with the exception of the morning of the Week 4 visit. Capsules were not to be taken on the morning of the Week 4 visit because trough plasma levels of fispemifene were determined by a blood sample taken at this visit. Each subject was randomly assigned to treatment with one of the 3 different dose regimens of fispemifene or placebo vehicle. Each subject received a 4 week supply of study drug.
Blood samples were taken from the subjects within 1 week prior to dosing with study drug to establish baseline values; after 2 and 4 weeks of randomization; and 2 weeks after the last dose of study drug. Serum was prepared from those samples and used to determine the mean % change from baseline in total testosterone, free testosterone, SHBG (sex hormone-binding globulin), DHT (dihydrotestosterone), E2 (estradiol), LH (luteinizing hormone), FSH (follicle stimulating hormone), and inhibin B.
The primary efficacy endpoint was defined as percent change from baseline in morning total testosterone levels at Week 4. The intent-to-treat (“ITT”) population was the primary population for analysis. The secondary efficacy endpoints included:
2. Percent change from baseline in total testosterone levels at Weeks 2 and 6; and […]

[1] = 100 mg/day, Week 6 (2 weeks after discontinuation)
[2] = 100 mg/day, to Week 6 (2 weeks after discontinuation)
[3] = 200 mg/day, Week 6 (2 weeks after discontinuation)
[4] = 200 mg/day, to Week 6 (2 weeks after discontinuation)
[5] = 300 mg/day, Week 6 (2 weeks after discontinuation)
[6] = 300 mg/day, to Week 6 (2 weeks after discontinuation)

OCCOCCOc1ccc(/C(=C(/CCCl)c2ccccc2)c2ccccc2)cc1 [Fispemifene, (Z)-2-{2-[4-(4-Chloro-1,2-diphenylbut-1-enyl)phenoxy]ethoxy}ethanol]
Serum estradiol, Mean (estradiol; 10 mg/day, Baseline): 106.2 pmol/L
Serum estradiol, Mean (estradiol; 10 mg/day, Day 8): 94.7 pmol/L
Serum estradiol, Mean (estradiol; 10 mg/day, Day 15): 81.7 pmol/L
Serum estradiol, Mean (estradiol; 10 mg/day, Day 22): 116.6 pmol/L
Serum estradiol, Mean (estradiol; 10 mg/day, Day 28): 75.0 pmol/L
Serum estradiol, Mean (estradiol; 30 mg/day, Baseline): 97.8 pmol/L
Serum estradiol, Mean (estradiol; 30 mg/day, Day 8): 105.6 pmol/L
Serum estradiol, Mean (estradiol; 30 mg/day, Day 15): 102.4 pmol/L
Serum estradiol, Mean (estradiol; 30 mg/day, Day 22): 99.6 pmol/L
Serum estradiol, Mean (estradiol; 30 mg/day, Day 28): 87.0 pmol/L
Serum estradiol, Mean (estradiol; 100 mg/day, Baseline): 84.3 pmol/L
Serum estradiol, Mean (estradiol; 100 mg/day, Day 8): 108.3 pmol/L
Serum estradiol, Mean (estradiol; 100 mg/day, Day 15): 111.5 pmol/L
Serum estradiol, Mean (estradiol; 100 mg/day, Day 22): 106.3 pmol/L
Serum estradiol, Mean (estradiol; 100 mg/day, Day 28): 94.5 pmol/L
Serum estradiol, Mean (estradiol; 300 mg/day, Baseline): 102.5 pmol/L
Serum estradiol, Mean (estradiol; 300 mg/day, Day 8): 104.0 pmol/L
Serum estradiol, Mean (estradiol; 300 mg/day, Day 15): 97.8 pmol/L
Serum estradiol, Mean (estradiol; 300 mg/day, Day 22): 95.5 pmol/L
Serum estradiol, Mean (estradiol; 300 mg/day, Day 28): 89.7 pmol/L
Total Testosterone, Max (total testosterone; 100 mg/day, Baseline (Visit 2)): 347.0 ng/dL
Total Testosterone, Mean ± SD (total testosterone; 100 mg/day, Baseline (Visit 2)): 248.6 ± 68.90 ng/dL
Total Testosterone, Median (total testosterone; 100 mg/day, Baseline (Visit 2)): 266.0 ng/dL
Total Testosterone, Min (total testosterone; 100 mg/day, Baseline (Visit 2)): 101.0 ng/dL
Total Testosterone, Max (total testosterone; 100 mg/day, Week 2): 585.0 ng/dL
Total Testosterone, Mean ± SD (total testosterone; 100 mg/day, Week 2): 369.9 ± 88.23 ng/dL
Total Testosterone, Median (total testosterone; 100 mg/day, Week 2): 350.0 ng/dL
Total Testosterone, Min (total testosterone; 100 mg/day, Week 2): 235.0 ng/dL
Total Testosterone, Max (total testosterone; 100 mg/day, Week 4): 535.0 ng/dL
Total Testosterone, Mean ± SD (total testosterone; 100 mg/day, Week 4): 371.6 ± 83.36 ng/dL
Total Testosterone, Median (total testosterone; 100 mg/day, Week 4): 353.0 ng/dL
Total Testosterone, Min (total testosterone; 100 mg/day, Week 4): 246.0 ng/dL
Total Testosterone, Max (total testosterone; [1]): 414.0 ng/dL
Total Testosterone, Mean ± SD (total testosterone; [1]): 271.9 ± 69.21 ng/dL
Total Testosterone, Median (total testosterone; [1]): 265.0 ng/dL
Total Testosterone, Min (total testosterone; [1]): 121.0 ng/dL
Total Testosterone, % Change from Baseline, Max (total testosterone; 100 mg/day, to Week 2): 133%
Total Testosterone, % Change from Baseline, Median (total testosterone; 100 mg/day, to Week 2): 45%
Total Testosterone, % Change from Baseline, Min (total testosterone; 100 mg/day, to Week 2): 14%
Total Testosterone, % Change from Baseline, Max (total testosterone; 100 mg/day, to Week 4): 198%
Total Testosterone, % Change from Baseline, Median (total testosterone; 100 mg/day, to Week 4): 35%
Total Testosterone, % Change from Baseline, Min (total testosterone; 100 mg/day, to Week 4): 7%
Total Testosterone, % Change from Baseline, Max (total testosterone; [2]): 119%
Total Testosterone, % Change from Baseline, Median (total testosterone; [2]): 11%
Total Testosterone, Max (total testosterone; 200 mg/day, Baseline (Visit 2)): 334.0 ng/dL
Total Testosterone, Mean ± SD (total testosterone; 200 mg/day, Baseline (Visit 2)): 249.1 ± 60.90 ng/dL
Total Testosterone, Median (total testosterone; 200 mg/day, Baseline (Visit 2)): 253.0 ng/dL
Total Testosterone, Min (total testosterone; 200 mg/day, Baseline (Visit 2)): 133.0 ng/dL
Total Testosterone, Max (total testosterone; 200 mg/day, Week 2): 497.0 ng/dL
Total Testosterone, Mean ± SD (total testosterone; 200 mg/day, Week 2): 370.0 ± 72.44 ng/dL
Total Testosterone, Median (total testosterone; 200 mg/day, Week 2): 354.0 ng/dL
Total Testosterone, Min (total testosterone; 200 mg/day, Week 2): 238.0 ng/dL
Total Testosterone, Max (total testosterone; 200 mg/day, Week 4): 626.0 ng/dL
Total Testosterone, Mean ± SD (total testosterone; 200 mg/day, Week 4): 387.3 ± 107.39 ng/dL
Total Testosterone, Median (total testosterone; 200 mg/day, Week 4): 372.0 ng/dL
Total Testosterone, Min (total testosterone; 200 mg/day, Week 4): 241.0 ng/dL
Total Testosterone, Max (total testosterone; [3]): 539.0 ng/dL
Total Testosterone, Mean ± SD (total testosterone; [3]): 276.2 ± 97.28 ng/dL
Total Testosterone, Median (total testosterone; [3]): 240.0 ng/dL
Total Testosterone, Min (total testosterone; [3]): 162.0 ng/dL
Total Testosterone, % Change from Baseline, Max (total testosterone; 200 mg/day, to Week 2): 142%
Total Testosterone, % Change from Baseline, Median (total testosterone; 200 mg/day, to Week 2): 48%
Total Testosterone, % Change from Baseline, Min (total testosterone; 200 mg/day, to Week 2): 17%
Total Testosterone, % Change from Baseline, Median (total testosterone; 200 mg/day, to Week 4): 60%
Total Testosterone, % Change from Baseline, Max (total testosterone; [4]): 79%
Total Testosterone, % Change from Baseline, Median (total testosterone; [4]): 11%
Total Testosterone, Max (total testosterone; 300 mg/day, Baseline (Visit 2)): 348.0 ng/dL
Total Testosterone, Mean ± SD (total testosterone; 300 mg/day, Baseline (Visit 2)): 234.2 ± 77.69 ng/dL
Total Testosterone, Median (total testosterone; 300 mg/day, Baseline (Visit 2)): 246.0 ng/dL
Total Testosterone, Min (total testosterone; 300 mg/day, Baseline (Visit 2)): 17.0 ng/dL
Total Testosterone, Max (total testosterone; 300 mg/day, Week 2): 526.0 ng/dL
Total Testosterone, Mean ± SD (total testosterone; 300 mg/day, Week 2): 379.2 ± 122.04 ng/dL
Total Testosterone, Median (total testosterone; 300 mg/day, Week 2): 427.0 ng/dL
Total Testosterone, Min (total testosterone; 300 mg/day, Week 2): 13.0 ng/dL
Total Testosterone, Max (total testosterone; 300 mg/day, Week 4): 643.0 ng/dL
Total Testosterone, Mean ± SD (total testosterone; 300 mg/day, Week 4): 430.7 ± 163.39 ng/dL
Total Testosterone, Median (total testosterone; 300 mg/day, Week 4): 479.0 ng/dL
Total Testosterone, Min (total testosterone; 300 mg/day, Week 4): 8.0 ng/dL
Total Testosterone, Max (total testosterone; [5]): 423.0 ng/dL
Total Testosterone, Mean ± SD (total testosterone; [5]): 279.2 ± 102.84 ng/dL
Total Testosterone, Median (total testosterone; [5]): 293.0 ng/dL
Total Testosterone, Min (total testosterone; [5]): 16.0 ng/dL
Total Testosterone, % Change from Baseline, Max (total testosterone; 300 mg/day, to Week 2): 101%
Total Testosterone, % Change from Baseline, Median (total testosterone; 300 mg/day, to Week 2): 65%
Total Testosterone, % Change from Baseline, Max (total testosterone; 300 mg/day, to Week 4): 181%
Total Testosterone, % Change from Baseline, Median (total testosterone; 300 mg/day, to Week 4): 80%
Total Testosterone, % Change from Baseline, Max (total testosterone; [6]): 77%
Total Testosterone, % Change from Baseline, Median (total testosterone; [6]): 14%
effect on serum total testosterone concentration (total testosterone; hypogonadal men, within 14 days from the start of treatment, maintained during treatment): clinically and statistically significant and dose dependent increase to, but not beyond, the normal range
